As a reminder, the Ki is a measure of affinity in units of concentration, obtained from inhibition or displacement.

The structures appear in SMILES notation. Read-outs that look alike come from different tables or passages of the source.

Assay [1] addresses T1, 5HT2A receptor (Homo sapiens, UniProt P28223).
T1 construct: β-galactosidase enzyme fragment (enzyme fragment complementation reporter); host or cells: PathHunter cell lines
As to the kind of experiment: GPCRmax screen, antagonist mode, 5HT2A. Format: cell-based. To be noted: HTR2A. The method, then: (§1) Studies were performed at Eurofins DiscoverX Corporation (Fremont, CA) using the GPCRmax assay according to the manufacturer’s protocols. […] Activity greater than 30% typically indicates agonist activity and inhibition greater than 50% indicates antagonist activity. This assay uses enzyme fragment complementation with […] as the functional reporter. When a GPCR is activated, […] is recruited and the reporter is detectable. GPCRmax offers a high-throughput screen of 168 GPCRs for agonist or antagonist activity. Briefly, PathHunter cell lines were propagated, seeded into 384-well microplates and incubated at 37°C. […] Microplates were read following signal generation with a PerkinElmer Envision™ instrument for chemiluminescent signal detection. Compound activity was analyzed using CBIS data analysis suite (ChemInnovation, CA) to determine raw values (RLU). For agonist mode assay, percentage activity was calculated using the following formula: % Activity =100% × (mean RLU of test sample - mean RLU of vehicle control) / (mean MAX control ligand - mean RLU of vehicle control). For antagonist mode assay, percentage inhibition was calculated using the following formula: % Inhibition =100% × (1 - (mean RLU of test sample - mean RLU of vehicle control) / (mean RLU of EC80 control - mean RLU of vehicle control)).

The subject of assay [2] is frontal cortex gene expression. In words: RNA-seq differential gene expression, frontal cortex. Format: in vivo, rat. To be noted: 10 mg/kg IP, 8 h; for Number of genes significantly regulated: vs vehicle.
The target of assay [3] is T2, 5HT2C receptor (Homo sapiens, UniProt P28335).
T2 construct: β-galactosidase enzyme fragment (enzyme fragment complementation reporter); host or cells: PathHunter cell lines
T2 sequence (P28335 33-458): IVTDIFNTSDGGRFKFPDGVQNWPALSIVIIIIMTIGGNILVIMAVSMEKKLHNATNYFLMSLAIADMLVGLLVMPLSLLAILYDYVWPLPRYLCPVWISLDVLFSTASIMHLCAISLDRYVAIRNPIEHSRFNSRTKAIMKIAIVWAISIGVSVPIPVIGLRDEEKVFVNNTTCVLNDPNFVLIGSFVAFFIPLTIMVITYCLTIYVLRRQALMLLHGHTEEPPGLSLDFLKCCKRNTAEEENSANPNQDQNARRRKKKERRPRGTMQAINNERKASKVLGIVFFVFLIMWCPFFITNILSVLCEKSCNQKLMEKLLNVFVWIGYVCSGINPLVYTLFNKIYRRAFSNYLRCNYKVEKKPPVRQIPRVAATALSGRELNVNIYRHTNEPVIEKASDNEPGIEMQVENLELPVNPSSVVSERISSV
In words: GPCRmax screen, antagonist mode, 5HT2C. Format: cell-based. The conditions noted are these: for % Antagonist Activity: HTR2C. The method, then: as §1

Assay [4] deals with T1, 5HT2A receptor. In words: GPCRmax screen, agonist mode, 5HT2A. To be noted: for % Agonist Activity: HTR2A. It is filed as cell-based. The method, then:
as §1

The target of assay [5] is T2, 5HT2C receptor. As to the kind of experiment: GPCRmax screen, agonist mode, 5HT2C. Format: cell-based. The conditions noted are these: for % Agonist Activity: HTR2C. As for the experimental part: as §1
Assay [6] relates to amygdala gene expression. In words: RNA-seq differential gene expression, amygdala. Format: in vivo, rat. The conditions noted are these: 10 mg/kg IP, 8 h.
Assay [7] concerns the target T3, dopamine (DA) transporter (DAT) (Rattus norvegicus, UniProt P23977).
T3 construct: Rat brains were dissected and tissue was homogenized in cold lysis buffer; from tissue; host or cells: rat brain membrane preparation
As to the kind of experiment: Competitive radioligand binding, [3H]WIN35428, rat brain membranes. As for the experimental part: All studies were performed at Gifford Bioscience, Ltd. (Birmingham, UK) according to standard protocols.
Radioligands used were: [^3H] Citalopram (PerkinElmer NET1039250UC); [^3H] Nisoxetine (PerkinElmer NET1084250UC); [^3H] WIN35428 (PerkinElmer NET1033250UC). Nonspecific compounds used were Citalopram (Tocris Bioscience 1,427); JHW007 (Tocris Bioscience 4,351); Nomifensine (Abcam ab146004). […] Rat brains were dissected and tissue was homogenized in cold lysis buffer, centrifuged at 100xg for 2 min and the supernatant was placed in a fresh tube. Supernatant was centrifuged at 13,000 × g for 10 min at 4°C to re-pellet the cell lysate. The pellet was resuspended in fresh wash buffer (50 mM Tris–HCl; 5 mM MgCl2; 5 mM EDTA) and centrifuged a third time. The pellet was then resuspended in wash buffer containing 10% sucrose as a cryoprotectant, divided into aliquots (0.3 mL) and stored at −80°C. A sample of the homogenate was analyzed for protein content using the Sigma® BCA assay. On the day of the assay, the membrane preparation was thawed and the pellet resuspended in final assay buffer. […] Filters were then dried under a warm air stream, sealed in polyethylene, scintillation cocktail added, and the radioactivity counted in a Wallac® TriLux 1,450 MicroBeta counter. […] Ki was subsequently calculated using the Cheng-Prusoff equation.

Assay [8] addresses T4, 168 GPCRs (Homo sapiens, UniProt P49238).
T4 construct: host or cells: PathHunter cell lines
T4 sequence (P49238 1-355): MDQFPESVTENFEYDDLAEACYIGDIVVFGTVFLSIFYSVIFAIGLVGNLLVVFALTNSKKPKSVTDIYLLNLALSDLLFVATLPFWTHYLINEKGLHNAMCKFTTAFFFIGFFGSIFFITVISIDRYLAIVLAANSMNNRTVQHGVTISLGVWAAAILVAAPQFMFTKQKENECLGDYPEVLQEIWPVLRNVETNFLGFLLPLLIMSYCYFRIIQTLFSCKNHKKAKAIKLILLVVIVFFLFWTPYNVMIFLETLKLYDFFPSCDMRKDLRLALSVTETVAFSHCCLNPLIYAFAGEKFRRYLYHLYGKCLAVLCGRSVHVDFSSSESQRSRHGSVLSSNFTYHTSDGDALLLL
Format: cell-based. As for the experimental part: as §1

Assay [9] concerns the target T5, 168 GPCRs (Homo sapiens, UniProt P61073).
T5 construct: host or cells: PathHunter cell lines
It is filed as cell-based. As for the experimental part: as §1

T5 sequence (P61073 whole entry): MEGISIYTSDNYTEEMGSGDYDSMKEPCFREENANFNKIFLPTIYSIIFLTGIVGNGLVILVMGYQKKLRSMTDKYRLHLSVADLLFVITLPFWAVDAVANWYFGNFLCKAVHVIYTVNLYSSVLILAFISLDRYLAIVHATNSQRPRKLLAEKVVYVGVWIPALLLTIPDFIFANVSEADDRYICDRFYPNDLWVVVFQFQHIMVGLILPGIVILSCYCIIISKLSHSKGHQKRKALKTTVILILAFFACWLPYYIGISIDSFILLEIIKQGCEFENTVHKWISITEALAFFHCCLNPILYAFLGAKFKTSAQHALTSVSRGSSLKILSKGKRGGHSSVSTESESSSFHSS
T1 sequence (P28223 whole entry, the tested form may be a part): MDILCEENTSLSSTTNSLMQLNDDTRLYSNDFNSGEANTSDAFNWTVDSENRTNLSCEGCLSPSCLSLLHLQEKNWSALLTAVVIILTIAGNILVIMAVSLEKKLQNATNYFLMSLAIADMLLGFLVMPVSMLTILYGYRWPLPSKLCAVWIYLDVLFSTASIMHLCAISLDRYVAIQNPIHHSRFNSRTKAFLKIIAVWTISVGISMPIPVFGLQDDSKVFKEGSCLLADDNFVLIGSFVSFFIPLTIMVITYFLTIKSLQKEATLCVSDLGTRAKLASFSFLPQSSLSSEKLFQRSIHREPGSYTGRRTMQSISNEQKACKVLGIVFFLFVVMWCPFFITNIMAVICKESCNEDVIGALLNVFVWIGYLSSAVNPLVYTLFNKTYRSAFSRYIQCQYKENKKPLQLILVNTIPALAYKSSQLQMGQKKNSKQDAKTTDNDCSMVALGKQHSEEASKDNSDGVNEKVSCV
T3 sequence (P23977 whole entry): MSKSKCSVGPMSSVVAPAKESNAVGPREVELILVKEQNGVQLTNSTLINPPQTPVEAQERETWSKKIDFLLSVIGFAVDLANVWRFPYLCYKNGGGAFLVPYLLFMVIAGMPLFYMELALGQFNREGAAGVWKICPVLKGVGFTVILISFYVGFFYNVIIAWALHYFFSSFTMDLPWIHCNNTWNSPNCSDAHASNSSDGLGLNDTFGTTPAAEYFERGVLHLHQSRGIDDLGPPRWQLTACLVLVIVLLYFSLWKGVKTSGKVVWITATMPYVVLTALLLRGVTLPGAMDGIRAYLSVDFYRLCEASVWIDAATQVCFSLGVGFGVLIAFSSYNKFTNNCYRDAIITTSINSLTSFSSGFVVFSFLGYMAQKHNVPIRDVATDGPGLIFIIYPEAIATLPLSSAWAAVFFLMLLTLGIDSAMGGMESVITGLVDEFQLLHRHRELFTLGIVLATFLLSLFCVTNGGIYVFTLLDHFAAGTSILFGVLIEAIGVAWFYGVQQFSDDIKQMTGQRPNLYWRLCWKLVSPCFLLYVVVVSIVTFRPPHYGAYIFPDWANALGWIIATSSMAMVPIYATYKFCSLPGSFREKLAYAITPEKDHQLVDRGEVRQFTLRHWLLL

Take `CNC(C)C(=O)c1ccc2c(c1)OCO2` (stereo not shown) [methylone]: the “% Antagonist Activity” value in assay [1] (1 uM) is reported as -7.9%; in assay [1] (10 uM), -2.7%; in assay [3] (1 uM) it was 21.1%; in assay [3] (10 uM), 24.2%; in assay [8] (CX3CR1, 1 uM), -0.2%; in assay [8] (CX3CR1, 10 uM), -6.1%. For the same molecule, the “% Antagonist Activity” value in [9] (CXCR4, 1 uM) was 10.7%; in [9] (CXCR4, 10 uM), -4.2%. The “Induction of BDNF, increase compared with controls” value in assay [2] (RNA-seq) is on record as ~ 60%. Also, the “Number of genes significantly regulated” value in assay [2] (frontal cortex) was found to be 480 genes. Further, the “% Agonist Activity” value is given as -0.1% in assay [4] (1 uM); 1.4% in [4] (10 uM); 1.4% in [5] (1 uM); 3.7% in [5] (10 uM); 0% in [8] (CX3CR1, 1 uM); -0.4% in assay [8] (CX3CR1, 10 uM). In addition, the “% Agonist Activity” value in assay [9] (CXCR4, 1 uM) was -4%; in [9] (CXCR4, 10 uM), 7%. The “Share of genes regulated by this drug that are also regulated by the other drug” value in [6] is 87%. The molecule further showed a Ki in assay [7] of 5.73 µM.
With `CNC(C)Cc1ccc2c(c1)OCO2` (stereo not shown) [MDMA, 3,4-Methylenedioxy methamphetamine, reference compound], the “% Antagonist Activity” value in assay [1] (1 uM) amounted to 5.1%; in assay [1] (10 uM), 3%; in assay [3] (1 uM), 22.5%; in assay [3] (10 uM), 52.2%; in [8] (CX3CR1, 1 uM), 6.5%; in assay [8] (CX3CR1, 10 uM), 3.7%. The “% Antagonist Activity” value in [9] (CXCR4, 1 uM) is 19.6%; in assay [9] (CXCR4, 10 uM) it was 14.6%. Also, the “More genes significantly regulated compared to methylone” value in [2] (frontal cortex) is reported as ~ 72%. For the same molecule, in [2] (frontal cortex), the “Number of genes significantly regulated” value is recorded as 825 genes. Also, the “% antagonist activity (inhibition), 5HT2C” value in assay [3] (Figure 2B, threshold 50% inhibition) turned out to be 52.2%. The “% agonist activity, 5HT2A” value in [4] (10 μM, cutoff 30% activity) came out at 27.5%. Moreover, the “% Agonist Activity” value in assay [4] (1 uM) is 4.9%; in assay [4] (10 uM) it was 27.5%; in [5] (1 uM), 15.9%; in assay [5] (10 uM), 28%; in [8] (CX3CR1, 1 uM), -1.3%; in [8] (CX3CR1, 10 uM) it was -1.4%. Further, the “% Agonist Activity” value in assay [9] (CXCR4, 1 uM) was determined as 3.1%; in assay [9] (CXCR4, 10 uM) it was 2.5%. Besides, the “% agonist activity, 5HT2C” value in [5] (10 μM, cutoff 30% activity) is 28.0%. The “Additional genes significantly regulated by this drug only” value in assay [6] (vs vehicle) was 1,313. Besides, in assay [7] (read-out: Ki, DAT, competitive radioligand binding, rat brain membranes, Cheng-Prusoff), the Ki came out at 5.11 µM.

The values above are taken from publication PMC10882719 (Frontiers in Neuroscience, 2024).
